# In PubChem BioAssay (NCI):
#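 Cells were grown in 96-well plates and exposed to each compound for 48 hours at five concentrations; endpoints were interpolated linearly between bracketing concentrations, or set to the highest concentration if not reached. TGI is the concentration that stops growth completely.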
# Legend:
# Test in all cases: DTP human tumour cell line panel, 48 h
# [1] = tested on: SK-OV-3 ovarian
# [2] = tested on: SK-MEL-28 melanoma
# [3] = tested on: MCF7 breast
# [4] = tested on: SN12C renal
# [5] = tested on: SK-MEL-5 melanoma
# [6] = tested on: MOLT-4 leukemia
# [7] = tested on: ACHN renal
# [8] = tested on: HL-60(TB) leukemia
# [9] = tested on: KM12 colon
# [10] = tested on: SF-268 CNS
# [11] = tested on: U251 CNS
# [12] = tested on: BT-549 breast
# [13] = tested on: MDA-MB-231 breast
# [14] = tested on: HS 578T breast
# [15] = tested on: HCT-116 colon
# [16] = tested on: NCI-H522 lung
# [17] = tested on: RPMI-8226 leukemia
# [18] = tested on: OVCAR-3 ovarian
# [19] = tested on: NCI-H226 lung
# [20] = tested on: TK-10 renal
# [21] = tested on: HT29 colon
# [22] = tested on: SF-295 CNS
# [23] = tested on: A498 renal
# [24] = tested on: DU-145 prostate
# [25] = tested on: LOX IMVI melanoma
# [26] = tested on: SW-620 colon
# [27] = tested on: COLO 205 colon
# [28] = tested on: HCC-2998 colon
# [29] = tested on: UO-31 renal
# [30] = tested on: OVCAR-8 ovarian
# [31] = tested on: SK-MEL-2 melanoma
# [32] = tested on: NCI-H460 lung
# [33] = tested on: SNB-19 CNS
# [34] = tested on: HOP-62 NSCLC
# [35] = tested on: EKVX NSCLC
# [36] = tested on: NCI/ADR-RES ovarian
# [37] = tested on: UACC-257 melanoma
# [38] = tested on: CAKI-1 renal
# [39] = tested on: PC-3 prostate
# [40] = tested on: K-562 leukemia
# [41] = tested on: A549 NSCLC
# [42] = tested on: HCT-15 colon
# [43] = tested on: 786-0 renal
# [44] = tested on: IGROV1 ovarian
# [45] = tested on: MDA-N
# [46] = tested on: SF-539 CNS
# [47] = tested on: NCI-H23 lung
# [48] = tested on: RXF 393 renal
# [49] = tested on: OVCAR-5 ovarian
# [50] = tested on: SNB-75 CNS
# [51] = tested on: MALME-3M melanoma
# [52] = tested on: SR leukemia
# [53] = tested on: MDA-MB-435
# [54] = tested on: CCRF-CEM leukemia
# [55] = tested on: UACC-62 melanoma
structure (smiles),measurement,setting,value
C/C(=N/NC(=S)N1CCCCC1)c1cccc(/C(C)=N\NC(=S)N2CCCCC2)n1,TGI,[1],3.56 µM
same,TGI,[2],4.32 µM
same,TGI,[3],4.46 µM
same,TGI,[4],4.83 µM
same,TGI,[5],3.54 µM
same,TGI,[6],6.38 µM
same,TGI,[7],3.02 µM
same,TGI,[8],5.66 µM
same,TGI,[9],6.14 µM
same,TGI,[10],9.06 µM
same,TGI,[11],4.45 µM
same,TGI,[12],3.4 µM
same,TGI,[13],3.99 µM
same,TGI,[14],6.57 µM
same,TGI,[15],3.64 µM
same,TGI,[16],4.34 µM
same,TGI,[17],6.84 µM
same,TGI,[18],5.49 µM
same,TGI,[19],5.54 µM
same,TGI,[20],3.69 µM
same,TGI,[21],7.22 µM
same,TGI,[22],4.06 µM
same,TGI,[23],3.16 µM
same,TGI,[24],6.35 µM
same,TGI,[25],5.4 µM
same,TGI,[26],10.6 µM
same,TGI,[27],10.1 µM
same,TGI,[28],4.01 µM
same,TGI,[29],2.78 µM
same,TGI,[30],3.19 µM
same,TGI,[31],4.2 µM
same,TGI,[32],4.75 µM
same,TGI,[33],7.09 µM
same,TGI,[34],15.9 µM
same,TGI,[35],5.79 µM
same,TGI,[36],4.72 µM
same,TGI,[37],6.85 µM
same,TGI,[38],3.93 µM
same,TGI,[39],4.03 µM
same,TGI,[40],6.65 µM
same,TGI,[41],7.29 µM
same,TGI,[42],4.25 µM
same,TGI,[43],3.46 µM
same,TGI,[44],4.45 µM
same,TGI,[45],3.17 µM
same,TGI,[46],3.9 µM
same,TGI,[47],> 100 µM
same,TGI,[48],5.15 µM
same,TGI,[49],2.44 µM
same,TGI,[50],6.53 µM
same,TGI,[51],4.58 µM
same,TGI,[52],6.58 µM
same,TGI,[53],3.62 µM
same,TGI,[54],> 100 µM
same,TGI,[55],5.54 µM
